Like-named read-outs stand apart in the source and are kept apart here.

Holding throughout (type): in vivo
Test [1] deals with Puccinia triticina; Synonym: Puccinia recondite f. sp. tritici. Kind of test: Wheat brown rust (PUCCRT) disease control on wheat seedlings. As to conditions: Puccinia triticina, High volume application, 100 ppm. An outline of the steps: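 Yuma wheat grown to first fully emerged leaf was inoculated with Puccinia triticina spore suspension either before or after fungicide treatment, held overnight at 22° C. and 100% RH in darkness, then kept at 24° C. Fungicide applied by booth sprayer to run-off (acetone/water, 110 ppm Triton X-100) or as EC by track spray.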

Test [2] deals with Blumeria graminis f. sp. tritici; Synonym: Erysiphe graminis f. sp. tritici. Nature of the test: Wheat powdery mildew (ERYSGT) disease control. The following applies: 24 h, 1 Day Protectant, high volume, read-out: Disease Control ERYSGT 1 DP. On the procedure:
Technical grades of materials were dissolved in acetone, which were then mixed with nine volumes of water containing 110 ppm Triton X-100. The fungicide solutions were applied onto wheat seedlings using an automated booth sprayer to run-off. All sprayed plants were allowed to air dry prior to further handling. All fungicides were evaluated using the aforementioned method for their activity vs. all target diseases. Wheat leaf blotch and brown rust activity were also evaluated using track spray applications, in which case the fungicides were formulated as EC formulations, containing 0.1% Trycol 5941 in the spray solutions. Wheat plants (variety Yuma) were grown from seed in a greenhouse in 50% mineral soil/50% soil-less Metro mix until the first leaf was fully emerged, with 7-10 seedlings per pot. These plants were inoculated by dusting with infected stock plants 24 hr after fungicide treatments. After inoculation the plants were kept in a greenhouse set at 20° C. for disease to develop. Fungicide formulation, application and disease assessment on the sprayed leaves followed the procedures as described in the Example A.

Another test has as its system Rhyncosporium secalis. Kind of test: Barley scald (RHYNSE) disease control. As to conditions: 24 h, High volume application, 1 Day Protectant, read-out: RHYNSE 1 DP disease control. On the procedure:
Technical grades of materials were dissolved in acetone, which were then mixed with nine volumes of water containing 110 ppm Triton X-100. The fungicide solutions were applied onto wheat seedlings using an automated booth sprayer to run-off. All sprayed plants were allowed to air dry prior to further handling. All fungicides were evaluated using the aforementioned method for their activity vs. all target diseases. Wheat leaf blotch and brown rust activity were also evaluated using track spray applications, in which case the fungicides were formulated as EC formulations, containing 0.1% Trycol 5941 in the spray solutions. Barley seedlings (variety Harrington) were propagated in soil-less Metro mix, with each pot having 8 to 12 plants, and used in the test when first leaf was fully emerged. Test plants were inoculated by an aqueous spore suspension of Rhyncosporium secalis 24 hr after fungicide treatments. After inoculation the plants were kept in a dew room at 20° C. with 100% relative humidity for 48 hr. The plants were then transferred to a greenhouse set at 20° C. for disease to develop. Fungicide formulation, application and disease assessment on the sprayed leaves followed the procedures as described in the Example A.

The test system of the next test is Alternaria solani. Kind of test: Tomato early blight (ALTESO) disease control. The following applies: 24 h, 1 Day Protectant, high volume, read-out: Disease Control ALTESO 1 DP. The protocol:
Technical grades of materials were dissolved in acetone, which were then mixed with nine volumes of water containing 110 ppm Triton X-100. The fungicide solutions were applied onto wheat seedlings using an automated booth sprayer to run-off. All sprayed plants were allowed to air dry prior to further handling. All fungicides were evaluated using the aforementioned method for their activity vs. all target diseases. Wheat leaf blotch and brown rust activity were also evaluated using track spray applications, in which case the fungicides were formulated as EC formulations, containing 0.1% Trycol 5941 in the spray solutions. Tomato plants (variety Outdoor girl) were propagated in soil-less Metro mix, with each pot having one plant, and used when 12 to 14 days old. Test plants were inoculated with an aqueous spore suspension of Alternaria solani 24 hr after fungicide treatments. After inoculation the plants were kept in 100% relative humidity (one day in a dark dew chamber followed by two to three days in a lighted dew chamber at 20° C.) to permit spores to germinate and infect the leaf. The plants were then transferred to a growth room at 22° C. for disease to develop. Fungicide formulation, application and disease assessment on the sprayed leaves followed the procedures as described in the Example A.

The subject of test [3] is Glomerella lagenarium; Anamorph: Colletotrichum lagenarium. Nature of the test: Cucumber anthracnose (COLLLA) disease control. The following applies: Colletotrichum orbiculare, 24 h, 1 Day Protectant, high volume, read-out: Disease Control COLLLA 1 DP. An outline of the steps:
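Compounds were dissolved in acetone, diluted with nine volumes of water containing 110 ppm Triton X-100 and sprayed to run-off on 12–14-day-old Bush Pickle cucumber seedlings. Plants were spore-inoculated 24 hr later and held 48 hr at 22 °C and 100% RH, then in a 22 °C growth room. Disease on sprayed leaves was then assessed.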

[4] abbreviates: 24 h, 1 Day Protectant, read-out: PUCCRT 1DP disease control.
The mark [5] stands for this setting: 72 h, 3 Day Curative, read-out: PUCCRT 3DC disease control.

In the case of `COc1ccnc(C(=O)N[C@H]2CCC[C@H](Oc3ccccc3)[C@@H](Oc3ccccc3)[C@H](C)OC2=O)c1OCOC(C)=O` [F20], the pest or weed control at 100 ppm in test [1] (setting [4]) was in the range of 80 to 100%; in test [1] (setting [5]), 80 to 100%; in test [2] it was 0 to 80%; in the test with Rhyncosporium secalis, 80 to 100%; in the test with Alternaria solani it was 0 to 80%; in test [3], 80 to 100%.

`COc1ccnc(C(=O)N[C@H]2CCC[C@H](Oc3ccccc3)[C@@H](OCC(C)C)[C@H](C)OC2=O)c1OCOC(C)=O` [F28]: the pest or weed control at 100 ppm was in the range of 80 to 100% in test [1] (setting [4]); 80 to 100% in test [1] (setting [5]); 0 to 80% in test [2]; 80 to 100% in the test with Rhyncosporium secalis; 0 to 80% with Alternaria solani; 80 to 100% in test [3].

Turning to `COc1ccnc(C(=O)N[C@H]2CCC[C@H](OCC(C)C)[C@@H](OC3CCCC3)[C@H](C)OC2=O)c1OCOC(C)=O` [F39], the pest or weed control at 100 ppm (in test [1] (setting [4]); in test [1] (setting [5]); in test [2]; in the test on Rhyncosporium secalis; with Alternaria solani; in test [3]) was 80 to 100% in each case.

Source of the values: patent US9681664B2, “Macrocyclic picolinamides as fungicides” (Dow Agrosciences LLC, priority 2012, dated 2017).
